ChEMBL document CHEMBL4390644, “Synthesis, structure-activity relationship studies and biological characterization of new [1,2,4]triazolo[1,5-a]pyrimidine-based LSD1/KDM1A inhibitors” (Eur J Med Chem, 2019)
pIC50: −log10 of the molar value. Activity calls are given as the source filed them. The calls are words filed in the database; no cut-off is given here.

Tests used:
[1] = molecular target: T1, Lysine-specific histone demethylase 1A (Homo sapiens, UniProt O60341); experiment: Inhibition of recombinant LSD1 (unknown origin) expressed in Escherichia coli BL21(DE) using H3K4me2 substrate by amplex red and horseradish peroxidase based fluorescence assay
[2] = molecular target: T1, Lysine-specific histone demethylase 1A; experiment: Inhibition of LSD1 in human A549 cells assessed as accumulation of H3K4me2 at 8 to 16 uM after 96 hrs by Western blot analysis; assay type: cell-based
[3] = tested on: A549; experiment: Antiproliferative activity against human A549 cells assessed as reduction in cell viability at <40 uM measured after 72 hrs by MTT based method; assay type: functional
[4] = tested on: A549; experiment: Down regulation of snail levels in human A549 cells up to 16 uM after 96 hrs by Western blot analysis; assay type: functional, cell-based
[5] = molecular target: T1, Lysine-specific histone demethylase 1A; experiment: Inhibition of LSD1 in human A549 cells assessed as accumulation of H3K9me1 at 8 to 16 uM after 96 hrs by Western blot analysis; assay type: cell-based
[6] = tested on: A549; experiment: Up regulation of claudin-1 levels in human A549 cells up to 16 uM after 96 hrs by Western blot analysis; assay type: functional, cell-based
[7] = tested on: A549; experiment: Down regulation of N-cadherin levels in human A549 cells up to 16 uM after 96 hrs by Western blot analysis; assay type: functional, cell-based
[8] = Antioxidant activity assessed as hydrogen peroxide scavenging activity at 10 uM incubated for 30 mins by ferrous ion oxidation-xylenol orange based method; assay type: functional
[9] = tested on: A549; experiment: Down regulation of slug levels in human A549 cells up to 16 uM after 96 hrs by Western blot analysis; assay type: functional, cell-based
[10] = molecular target: T1, Lysine-specific histone demethylase 1A; experiment: Inhibition of LSD1 in human A549 cells assessed as accumulation of H3K4me1 at 8 to 16 uM after 96 hrs by Western blot analysis; assay type: cell-based
[11] = tested on: A549; experiment: Up regulation of E-cadherin levels in human A549 cells up to 16 uM after 96 hrs by Western blot analysis; assay type: functional, cell-based
[12] = molecular target: T1, Lysine-specific histone demethylase 1A; experiment: Binding affinity to LSD1 in human A549 cells assessed as increase in stability of cellular LSD1 protein at 10 to 20 uM pre-incubated for 1 hr followed by heating at 46 and 52 degC for 3 mins by Western blot-based CESTA; assay type: cell-based
[13] = tested on: A549; experiment: Effect on LSD1 expression in human A549 cells up to 16 uM after 96 hrs by Western blot analysis; assay type: functional, cell-based
[14] = molecular target: T1, Lysine-specific histone demethylase 1A; experiment: Inhibition of LSD1 in human A549 cells assessed as accumulation of H3K9me2 at 8 to 16 uM after 96 hrs by Western blot analysis; assay type: cell-based
[15] = molecular target: T2, MAO-A (Homo sapiens, UniProt P21397); experiment: Inhibition of N-terminal FLAG-tagged full length recombinant human MAO-A expressed in Sf9 cells at 10 uM using luciferin derived luminogenic substrate preincubated for 15 mins followed by substrate addition and measured after 60 mins by MAO-Glo assay relative to control; details: probe luciferin derived luminogenic substrate
T2 sequence (P21397 whole entry): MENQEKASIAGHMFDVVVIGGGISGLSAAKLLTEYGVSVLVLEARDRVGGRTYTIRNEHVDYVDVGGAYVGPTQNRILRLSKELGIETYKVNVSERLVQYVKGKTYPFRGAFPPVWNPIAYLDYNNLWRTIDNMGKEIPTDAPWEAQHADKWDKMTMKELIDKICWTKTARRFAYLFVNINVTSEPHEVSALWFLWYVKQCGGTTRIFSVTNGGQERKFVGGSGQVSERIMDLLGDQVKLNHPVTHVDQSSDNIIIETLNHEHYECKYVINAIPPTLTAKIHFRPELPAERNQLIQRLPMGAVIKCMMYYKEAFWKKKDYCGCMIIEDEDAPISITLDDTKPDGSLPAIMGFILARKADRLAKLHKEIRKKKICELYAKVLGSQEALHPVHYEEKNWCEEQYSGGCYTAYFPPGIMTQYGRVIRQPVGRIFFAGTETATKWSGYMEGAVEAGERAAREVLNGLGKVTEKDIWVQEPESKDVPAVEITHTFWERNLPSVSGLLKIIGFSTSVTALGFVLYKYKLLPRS

[16] = molecular target: T2, MAO-A; experiment: Inhibition of N-terminal FLAG-tagged full length recombinant human MAO-A expressed in Sf9 cells at 1 uM using luciferin derived luminogenic substrate preincubated for 15 mins followed by substrate addition and measured after 60 mins by MAO-Glo assay relative to control; details: probe luciferin derived luminogenic substrate
[17] = tested on: A549; experiment: Antiproliferative activity against human A549 cells assessed as reduction in cell viability measured after 72 hrs by MTT based method; details: A549, 72 h
[18] = molecular target: T3, MAO-B (Homo sapiens, UniProt P27338); experiment: Inhibition of N-terminal FLAG-tagged full length recombinant human MAO-B expressed in Sf9 cells at 1 uM using luciferin derived luminogenic substrate preincubated for 15 mins followed by substrate addition and measured after 60 mins by MAO-Glo assay relative to control; details: probe luciferin derived luminogenic substrate
T3 sequence (P27338 whole entry): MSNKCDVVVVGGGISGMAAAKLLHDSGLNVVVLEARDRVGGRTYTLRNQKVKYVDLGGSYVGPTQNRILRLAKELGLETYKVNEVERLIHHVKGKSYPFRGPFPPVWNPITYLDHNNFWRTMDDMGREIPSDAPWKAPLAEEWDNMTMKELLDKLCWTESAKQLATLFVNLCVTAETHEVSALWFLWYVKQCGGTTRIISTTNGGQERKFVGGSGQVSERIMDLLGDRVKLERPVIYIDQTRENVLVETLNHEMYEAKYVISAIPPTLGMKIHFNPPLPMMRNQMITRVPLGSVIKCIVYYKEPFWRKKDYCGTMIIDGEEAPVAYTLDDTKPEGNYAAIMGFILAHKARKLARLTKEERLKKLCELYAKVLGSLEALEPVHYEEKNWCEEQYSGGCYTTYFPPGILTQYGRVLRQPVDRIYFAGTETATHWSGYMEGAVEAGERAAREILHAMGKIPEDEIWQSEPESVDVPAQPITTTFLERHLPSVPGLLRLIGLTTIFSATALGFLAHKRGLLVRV

[19] = tested on: A549; details: Homo sapiens, 16 uM
Description: Antimigratory activity in human A549 cells at 16 uM after 48 hrs by Hoechst 33258 staining based transwell assay

[20] = tested on: Armoracia rusticana; details: 10 uM
Description: Inhibition of horseradish peroxidase at 10 uM incubated for 10 mins with presence of H2O2 by absorbance based method relative to control

[21] = molecular target: T3, MAO-B; experiment: Inhibition of N-terminal FLAG-tagged full length recombinant human MAO-B expressed in Sf9 cells at 10 uM using luciferin derived luminogenic substrate preincubated for 15 mins followed by substrate addition and measured after 60 mins by MAO-Glo assay relative to control; details: probe luciferin derived luminogenic substrate
[22] = molecular target: T1, Lysine-specific histone demethylase 1A; details: 1.6 uM
Description: Irreversible inhibition of recombinant LSD1 (unknown origin) expressed in Escherichia coli BL21(DE) assessed as recovery of enzyme activity at 1.6 uM using H3K4me2 substrate incubated for 1 hr followed by 80 fold dilution by dilution assay

[23] = molecular target: T1, Lysine-specific histone demethylase 1A; experiment: Binding affinity to LSD1 in human A549 cells assessed as increase in stability of cellular LSD1 protein at 10 uM pre-incubated for 1 hr followed by heating at 49 degC for 3 mins by Western blot-based CESTA; assay type: cell-based
[24] = tested on: A549; experiment: Antiproliferative activity against human A549 cells assessed as reduction in cell viability at 1.25 to 100 uM measured after 72 hrs by MTT based method; assay type: functional
[25] = molecular target: T1, Lysine-specific histone demethylase 1A; experiment: Binding affinity to LSD1 in human A549 cells assessed as increase in stability of cellular LSD1 protein at 10 uM pre-incubated for 1 hr followed by heating at 52 degC for 3 mins by Western blot-based CESTA; assay type: cell-based

## CCCCCc1c(C)nc2nc(SCc3ccc(Cl)cc3)nn2c1Nc1ccc(N2CCN(C)CC2)cc1
[1]
  pIC50: < 4.30

## CN1CCN(c2ccc(Nc3c4c(nc5ncnn35)CCC4)cc2)CC1
[1]
  pIC50: < 4.30

## Cc1cc(Nc2ccccc2)n2nc(SCc3ccccc3)nc2n1
[1]
  pIC50: < 4.30

## Cc1cc(Nc2ccc(N3CCN(C)CC3)cc2)n2nc(SCc3ccccc3[N+](=O)[O-])nc2n1
[1]
  pIC50: < 4.30

## Cc1cc(Nc2ccc(N3CCN(C)CC3)cc2)n2nc(SCC3CC3)nc2n1
[1]
  pIC50: < 4.30

## Cc1cc(Nc2ccccc2)n2nc(SCc3nc4ccccc4[nH]3)nc2n1
[2]
  inhibition: inactive
[3]
  Activity: inactive
[4]
  Activity: inactive
[5]
  inhibition: inactive
[6]
  Activity: inactive
[7]
  Activity: inactive
[8]
  Activity: inactive
[1]
  pIC50: < 4.30
[9]
  Activity: inactive
[10]
  inhibition: inactive
[11]
  Activity: inactive
[12]
  Activity: inactive
[13]
  Activity: inactive
[14]
  inhibition: inactive

## Cc1cc(N)n2nc(SCc3ccccc3)nc2n1
[1]
  pIC50: < 4.30

## CN1CCN(c2ccc(Nc3cc(-c4ccccc4)nc4ncnn34)cc2)CC1
[1]
  pIC50: < 4.30

## Cc1cc(Nc2ccc(N3CCN(C)CC3)cc2)n2nc(SCCCc3ccccc3)nc2n1
[1]
  pIC50: < 4.30

## Cc1cc(Nc2ccc(N3CCN(C)CC3)cc2)n2nc(SCc3nc4ccccc4[nH]3)nc2n1
[15]
  inhibition at 1 h, 10 µM: 40%
[16]
  inhibition at 1 h, 1 µM: 13%
[17]
  pIC50: 4.62
[4]
  Activity: Active
[6]
  Activity: Active
[7]
  Activity: Active
[18]
  inhibition at 1 h, 1 µM: 18%
[8]
  Activity: inactive
[19]
  inhibition: Active
[9]
  Activity: Active
[20]
  inhibition: inactive
[11]
  Activity: Active
[21]
  inhibition at 1 h, 10 µM: 34%
[13]
  Activity: inactive

## O=C(O)c1ccc(CN2CCC(CN[C@@H]3C[C@H]3c3ccccc3)CC2)cc1
[22]
  inhibition: inactive

## Cc1nc2nc(SCc3ccc(Cl)cc3)nn2c(Nc2ccc(N3CCN(C)CC3)cc2)c1C
[1]
  pIC50: < 4.30

## c1ccc([C@@H]2C[C@H]2NC2CCNCC2)cc1
[4]
  Activity: Active
[23]
  Activity: Active
[6]
  Activity: Active
[7]
  Activity: Active
[9]
  Activity: Active
[11]
  Activity: Active
[24]
  Activity: inactive
[25]
  Activity: Active
[13]
  Activity: inactive
